Experimental data taken from ChEMBL document CHEMBL1201862, “PubChem BioAssay data set” (2004).
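Each compound was tested at five concentrations against cells in 96-well plates for 48 hours. GI50: concentration for 50% inhibition of growth.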 Calls of active or inactive are those of the source. No stated cut-off is given here; in the data, active = GI50 up to about 1.1 µM and inactive = higher.

How the values were obtained:
Experiment in all cases: DTP human tumour cell line panel, 48 h
HOP-92 = system: HOP-92
SR = system: SR
A549 = system: A549
HCT-116 = system: HCT-116
NCI-H226 = system: NCI-H226
U-251 = system: U-251
SF-268 = system: SF-268
PC-3 = system: PC-3
OVCAR-5 = system: OVCAR-5
SNB-75 = system: SNB-75
K562 = system: K562
SF-539 = system: SF-539
SN12C = system: SN12C
SK-MEL-28 = system: SK-MEL-28
HCT-15 = system: HCT-15
OVCAR-4 = system: OVCAR-4
786-0 = system: 786-0
SF-295 = system: SF-295
NCI-H460 = system: NCI-H460
UACC-257 = system: UACC-257

| SMILES | GI50 (HOP-92) | GI50 (SR) | GI50 (A549) | GI50 (HCT-116) | GI50 (NCI-H226) | GI50 (U-251) | GI50 (SF-268) | GI50 (PC-3) | GI50 (OVCAR-5) | GI50 (SNB-75) | GI50 (K562) | GI50 (SF-539) | GI50 (SN12C) | GI50 (SK-MEL-28) | GI50 (HCT-15) [µM] | GI50 (OVCAR-4) | GI50 (786-0) | GI50 (SF-295) | GI50 (NCI-H460) | GI50 (UACC-257) |
| --- | --- | --- | --- | --- | --- | --- | --- | --- | --- | --- | --- | --- | --- | --- | --- | --- | --- | --- | --- | --- |
| S=C(Cc1ccc2c(c1)Sc1ccccc1O2)N1CCOCC1 | 30.6 µM (inactive) | 26.7 µM (inactive) | 35.7 µM (inactive) | 8.32 µM (inactive) | 28.8 µM (inactive) | 31.8 µM (inactive) | 32.6 µM (inactive) | 28.3 µM (inactive) | > 100 µM (inactive) | 18.7 µM (inactive) | > 100 µM (inactive) | 21.2 µM (inactive) | > 100 µM (inactive) | 59.7 µM (inactive) | 41.9 | > 100 µM (inactive) | 56.9 µM (inactive) | 22.6 µM (inactive) | 23.5 µM (inactive) | 31.4 µM (inactive) |
| O=C1/C(=C/c2ccc(Oc3ccccc3)cc2)N=C(c2ccccc2)N1c1ccc(S(=O)(=O)Nc2nccs2)cc1 | 6.78 µM (inactive) | 2.65 µM (inactive) | 25.8 µM (inactive) | 10.7 µM (inactive) | 33.4 µM (inactive) | 17.1 µM (inactive) | 36.8 µM (inactive) | 25.4 µM (inactive) | 40.4 µM (inactive) | 7.53 µM (inactive) | 7.48 µM (inactive) | 31.5 µM (inactive) | 39.8 µM (inactive) | 22.8 µM (inactive) | 8.07 | 38.6 µM (inactive) | 31.4 µM (inactive) | 22.8 µM (inactive) | 25.5 µM (inactive) | 21.3 µM (inactive) |
| C=C1CC(C)(COc2ccc3c(C)c(C)c(=O)oc3c2C)OC1=O (stereo not given) | 1.26 µM (inactive) | 0.995 µM (active) | 7.67 µM (inactive) | 0.879 µM (active) | 13.7 µM (inactive) | 6.56 µM (inactive) | 4.15 µM (inactive) | 2.27 µM (inactive) | 6.27 µM (inactive) | 3.66 µM (inactive) | 0.811 µM (active) | 2.24 µM (inactive) | 2.04 µM (inactive) | 2.07 µM (inactive) | 1.56 | 4.3 µM (inactive) | 1.4 µM (inactive) | 5.19 µM (inactive) | 5.33 µM (inactive) | 2.09 µM (inactive) |
| COC(=O)Cc1c([C@H]2[C@H](CC(=O)OC)c3ccccc3N2C(=O)C(F)(F)F)[nH]c2ccccc12 | 32.3 µM (inactive) | 14.7 µM (inactive) | 31.3 µM (inactive) | 15.5 µM (inactive) | 2 µM (inactive) | 13.6 µM (inactive) | 27.4 µM (inactive) | 11.4 µM (inactive) | 18.9 µM (inactive) | 29.2 µM (inactive) | 11.1 µM (inactive) | 29.5 µM (inactive) | 46.1 µM (inactive) | 34.5 µM (inactive) | 8.18 | 56.6 µM (inactive) | > 100 µM (inactive) | 18.1 µM (inactive) | 22.4 µM (inactive) | 29.1 µM (inactive) |
| CC(C)Oc1cccc(N2C(n3ccnc3)=Nc3ccncc3S2(=O)=O)c1 | 12.7 µM (inactive) | 3.78 µM (inactive) | 20.4 µM (inactive) | 13.6 µM (inactive) | 21.7 µM (inactive) | 15.4 µM (inactive) | 16.3 µM (inactive) | 10.8 µM (inactive) | 13.8 µM (inactive) | 18.7 µM (inactive) | 10.2 µM (inactive) | 6.31 µM (inactive) | 15.5 µM (inactive) | 17.9 µM (inactive) | 13.6 | 14 µM (inactive) | 10.4 µM (inactive) | 34.9 µM (inactive) | 18.8 µM (inactive) | 16.4 µM (inactive) |
| CN(C)CC1CCCC1=O (stereo not given) | 0.973 µM (active) | 0.0479 µM (active) | 24 µM (inactive) | 0.944 µM (active) | 14.4 µM (inactive) | 6.82 µM (inactive) | 5.85 µM (inactive) | 8.09 µM (inactive) | 5.42 µM (inactive) | 3.78 µM (inactive) | 0.0632 µM (active) | 7.89 µM (inactive) | 1.06 µM (active) | 2.98 µM (inactive) | 0.378 | 1.97 µM (inactive) | 7.53 µM (inactive) | 19.8 µM (inactive) | 10.5 µM (inactive) | 1.5 µM (inactive) |
| CCCCCCCCCCCC(=O)OCC(C[As](=O)(O)O)OC(=O)CCCCCCCCCCC (stereo not given) | 1.88 µM (inactive) | 3.64 µM (inactive) | 8.2 µM (inactive) | 5.61 µM (inactive) | 16.2 µM (inactive) | 1.54 µM (inactive) | 5.09 µM (inactive) | 3.18 µM (inactive) | 18.1 µM (inactive) | 6.95 µM (inactive) | 5.32 µM (inactive) | 7.89 µM (inactive) | 2.94 µM (inactive) | 2.96 µM (inactive) | 8.39 | 15.1 µM (inactive) | 13.4 µM (inactive) | 10.4 µM (inactive) | 4.05 µM (inactive) | 7.52 µM (inactive) |
| CCOC(=O)c1cn2c(n1)sc1cc([N+](=O)[O-])ccc12 | > 100 µM (inactive) | > 100 µM (inactive) | > 100 µM (inactive) | > 100 µM (inactive) | > 100 µM (inactive) | 76 µM (inactive) | > 100 µM (inactive) | > 100 µM (inactive) | > 100 µM (inactive) | 58.2 µM (inactive) | > 100 µM (inactive) | 62.7 µM (inactive) | > 100 µM (inactive) | > 100 µM (inactive) | > 100 | > 100 µM (inactive) | 43.1 µM (inactive) | 37.3 µM (inactive) | > 100 µM (inactive) | > 100 µM (inactive) |
| C(=C\Nc1ccc(Oc2ccccc2)cc1)/C=N/c1ccc(Oc2ccccc2)cc1 | 24.3 µM (inactive) | 19.4 µM (inactive) | 22.1 µM (inactive) | 17.4 µM (inactive) | 55.3 µM (inactive) | 19.1 µM (inactive) | 21 µM (inactive) | 15.1 µM (inactive) | 25 µM (inactive) | 17.2 µM (inactive) | 22.5 µM (inactive) | 16.4 µM (inactive) | 14.8 µM (inactive) | 16.6 µM (inactive) | 19.5 | 17.1 µM (inactive) | 16.6 µM (inactive) | 15.9 µM (inactive) | 16.7 µM (inactive) | 17.1 µM (inactive) |
| CCOC(=O)C(NC(=O)N(C1=NCC(C)S1)C1CCCCC1)(OC)C(F)(F)F (stereo not given) | 46 µM (inactive) | 39.6 µM (inactive) | 39.1 µM (inactive) | 31.6 µM (inactive) | 21.1 µM (inactive) | 22.6 µM (inactive) | 32.6 µM (inactive) | 30.8 µM (inactive) | > 100 µM (inactive) | 31 µM (inactive) | 56.9 µM (inactive) | 32.3 µM (inactive) | 15.1 µM (inactive) | 47.2 µM (inactive) | 30.1 | 40.3 µM (inactive) | 15.5 µM (inactive) | 49.8 µM (inactive) | 35.4 µM (inactive) | 56.5 µM (inactive) |
